In ChEMBL document CHEMBL1130294, “Subsite requirements for peptide aldehyde inhibitors of human calpain I” (Bioorg Med Chem Lett, 1997):
Non-standard residues stand in square brackets, D forms with d. Residues, ends and D or L forms follow the SMILES beside them. *: point of attachment. Tic = O=C(O)[C@@H]1Cc2ccccc2CN1; Cha = N[C@@H](CC1CCCCC1)C(=O)O; Tle = CC(C)(C)[C@H](N)C(=O)O; Nle = CCCC[C@H](N)C(=O)O; Abu = CC[C@H](N)C(=O)O; Cbz = O=C(OCc1ccccc1)*; Boc = CC(C)(C)OC(=O)*; Bn = c1ccc(C*)cc1; OtBu = CC(C)(C)O*; tBu = CC(C)(C)*

molecular target: T1, Calpain-1 catalytic subunit (Homo sapiens, UniProt P07384); assay: Inhibitory activity evaluated against recombinant human calpain 1
T1 sequence (P07384 whole entry): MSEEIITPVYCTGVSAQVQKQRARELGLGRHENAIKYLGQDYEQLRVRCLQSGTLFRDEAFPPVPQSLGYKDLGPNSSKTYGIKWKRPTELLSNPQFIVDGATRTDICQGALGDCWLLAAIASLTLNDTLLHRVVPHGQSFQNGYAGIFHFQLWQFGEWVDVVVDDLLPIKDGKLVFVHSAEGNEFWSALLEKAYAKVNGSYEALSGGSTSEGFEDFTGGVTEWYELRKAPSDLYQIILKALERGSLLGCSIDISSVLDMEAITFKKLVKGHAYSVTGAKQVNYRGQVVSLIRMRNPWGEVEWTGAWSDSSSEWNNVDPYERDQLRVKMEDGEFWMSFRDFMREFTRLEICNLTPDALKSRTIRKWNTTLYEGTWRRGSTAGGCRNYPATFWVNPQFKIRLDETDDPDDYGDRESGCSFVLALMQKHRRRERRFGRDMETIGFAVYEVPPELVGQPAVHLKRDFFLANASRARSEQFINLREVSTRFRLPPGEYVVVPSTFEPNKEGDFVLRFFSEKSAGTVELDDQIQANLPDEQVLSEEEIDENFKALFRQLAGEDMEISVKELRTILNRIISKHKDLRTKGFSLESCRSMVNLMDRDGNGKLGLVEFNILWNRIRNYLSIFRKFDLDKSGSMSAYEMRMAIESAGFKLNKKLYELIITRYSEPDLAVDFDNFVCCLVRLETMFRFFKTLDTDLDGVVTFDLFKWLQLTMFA

SMILES | IC50 [nM]
CC(C)C[C@H](NC(=O)OCc1ccccc1)C(=O)N[C@H](CC=O)Cc1ccccc1 | > 1000
CC(C)C[C@@H](C=O)NC(=O)[C@H](CCC(N)=O)NC(=O)OCc1ccccc1 (Cbz-Gln-Leu-aldehyde) | 370
CC(C)C[C@@H](C=O)NC(=O)[C@H](CC(C)C)NC(=O)[C@H](Cc1ccccc1)NC(=O)OCc1ccccc1 (Cbz-Phe-Leu-Leu-aldehyde) | 11
CC(=O)N[C@@H](CC(C)C)C(=O)N[C@@H](CC(C)C)C(=O)N[C@H](C=O)Cc1c[nH]c2ccccc12 (Ac-Leu-Leu-Trp-aldehyde) | 150
CC(=O)N[C@@H](CC(C)C)C(=O)N[C@@H](CC(C)C)C(=O)N[C@H](C=O)CCCNC(=N)N | 72
CC(C)C[C@H](NC(=O)OCc1ccccc1)C(=O)N[C@@H](C)C=O (Cbz-Leu-Ala-aldehyde) | 120
CC(C)C[C@@H](C=O)NC(=O)[C@H](CC(C)C)NC(=O)c1ccccc1C(=O)O | > 1000
CC(C)C[C@H](NC(=O)OCc1ccccc1)C(=O)N[C@H](C=O)Cc1cnc[nH]1 (Cbz-Leu-His-aldehyde) | 15
CC(C)C[C@@H](C=O)NC(=O)[C@H](CC1CCCCC1)NC(=O)OCc1ccccc1 (Cbz-[Cha]-Leu-aldehyde) | 580
CSCCC(C=O)NC(=O)C(CC(C)C)NC(=O)[C@H](CC(C)C)NC(C)=O (single isomer, unassigned) | 23
CC(C)C[C@H](C=O)NC(=O)OCc1ccccc1 | 10000
CC(C)C[C@@H](C=O)NC(=O)[C@H](CC(C)C)NC(=O)[C@@H]1Cc2ccccc2CN1C(=O)OCc1ccccc1 (Cbz-[Tic]-Leu-Leu-aldehyde) | 15
CC(C)C[C@@H](C=O)NC(=O)[C@H](CC(C)C)NC(=O)[C@H](COC(C)(C)C)NC(=O)OCc1ccccc1 (Cbz-Ser(tBu)-Leu-Leu-aldehyde) | 12
CCCC[C@@H](C=O)NC(=O)[C@H](CC(C)C)NC(=O)[C@H](CC(C)C)NC(C)=O (Ac-Leu-Leu-[Nle]-aldehyde) | 12
CC(C)C[C@@H](C=O)NC(=O)[C@@H](NC(=O)OCc1ccccc1)C(C)C (Cbz-Val-Leu-aldehyde) | 29
CC(C)C[C@@H](C=O)NC(=O)[C@H](CC(C)C)NC(=O)[C@H](CC(C)C)NC(=O)OCc1ccccc1 (Cbz-Leu-Leu-Leu-aldehyde) | 19
CC(C)C[C@@H](C=O)NC(=O)[C@H](CC(C)C)NC(=O)[C@H](Cc1ccc(O)cc1)NC(=O)OCc1ccccc1 (Cbz-Tyr-Leu-Leu-aldehyde) | 8
CC(C)C[C@@H](C=O)NC(=O)[C@H](Cc1ccccc1)NC(=O)[C@@H](NC(=O)OCc1ccccc1)C(C)C (Cbz-Val-Phe-Leu-aldehyde) | 31
CC(=O)N[C@@H](CC(C)C)C(=O)N[C@@H](CC(C)C)C(=O)N[C@H](C=O)Cc1ccccc1 (Ac-Leu-Leu-Phe-aldehyde) | 32
CC(=O)N[C@@H](CC(C)C)C(=O)N[C@@H](CC(C)C)C(=O)N[C@H](C=O)CCCCNC(=O)OC(C)(C)C (Ac-Leu-Leu-Lys(Boc)-aldehyde) | 33
CC(C)C[C@H](NC(=O)OCc1ccccc1)C(=O)NCC=O (Cbz-Leu-Gly-aldehyde) | 300

SMILES | IC50 [nM]
CC(C)C[C@@H](C=O)NC(=O)[C@H](CC(C)C)NC(=O)[C@H](CC(C)C)NC(=O)c1ccc2ccccc2c1 | 10
CC(C)C[C@@H](C=O)NC(=O)[C@H](Cc1c[nH]c2ccccc12)NC(=O)OCc1ccccc1 (Cbz-Trp-Leu-aldehyde) | 120
CC(C)C[C@@H](C=O)NC(=O)[C@H](CC(C)C)NC(=O)[C@H](CC(C)C)NC(=O)[C@H](C)NC(=O)OCc1ccccc1 (Cbz-ALLL-aldehyde) | 6
CC(=O)N[C@@H](C)C(=O)N[C@@H](CC(C)C)C(=O)N[C@H](C=O)CC(C)C (Ac-Ala-Leu-Leu-aldehyde) | 18
CC[C@H](C)[C@H](NC(=O)OCc1ccccc1)C(=O)N[C@H](C=O)CC(C)C (Cbz-Ile-Leu-aldehyde) | 41
CC(C)C[C@@H](C=O)NC(=O)[C@@H](NC(=O)OCc1ccccc1)C(C)(C)C (Cbz-[Tle]-Leu-aldehyde) | 4
CC(=O)N[C@@H](CC(C)C)C(=O)N[C@@H](CC(C)C)C(=O)N[C@H](C=O)CCC(=O)OC(C)(C)C (Ac-Leu-Leu-Glu(OtBu)-aldehyde) | 1100
CC(C)C[C@@H](C=O)NC(=O)[C@H](CC(C)C)N(C)C(=O)OCc1ccccc1 | > 10000
CC(C)C[C@@H](C=O)NC(=O)[C@H](CC(C)C)NC(=O)[C@H](CCCCN)NC(=O)OCc1ccccc1 (Cbz-Lys-Leu-Leu-aldehyde) | 20
CC(C)C[C@H](NC(=O)OCc1ccccc1)C(=O)N[C@H](C=O)CC1CCCCC1 (Cbz-Leu-[Cha]-aldehyde) | 11
CC(C)C[C@@H](C=O)NC(=O)[C@H](CC(C)C)NC(=O)/C=C\C(=O)O | ~10000
CC(C)C[C@@H](C=O)NC(=O)[C@H](CC(C)C)NC(=O)[C@H](CC(C)C)NC(=O)[C@H](Cc1c[nH]cn1)NC(=O)OCc1ccccc1 (Cbz-HLLL-aldehyde) | 17
CC(=O)N[C@@H](CC(C)C)C(=O)N[C@@H](CC(C)C)C(=O)N[C@@H](C=O)CC(C)C | 62
CC(C)C[C@@H](C=O)NC(=O)[C@H](CC(C)C)NC(=O)[C@H](CCC(=O)O)NC(=O)OCc1ccccc1 (Cbz-Glu-Leu-Leu-aldehyde) | 40
CC(C)C[C@@H](C=O)NC(=O)[C@H](CC(C)C)NC(=O)OCc1ccc([N+](=O)[O-])cc1 | 8
CC(C)C[C@@H](C=O)NC(=O)[C@H](Cc1c[nH]c2ccccc12)NC(=O)[C@H](CC(C)C)NC(=O)OCc1ccccc1 (Cbz-Leu-Trp-Leu-aldehyde) | 45
CC(C)C[C@@H](C=O)NC(=O)[C@H](CCCCN)NC(=O)[C@H](CC(C)C)NC(=O)OCc1ccccc1 (Cbz-Leu-Lys-Leu-aldehyde) | ~10000
CC(=O)N[C@H](C(=O)N[C@@H](Cc1ccccc1)C(=O)N[C@H](C=O)CC(C)C)C(C)C (Ac-Val-Phe-Leu-aldehyde) | 110
CCCC[C@H](NC(=O)OCc1ccccc1)C(=O)N[C@H](C=O)CC(C)C | 33
CC(=O)N[C@@H](CC(C)C)C(=O)N[C@@H](CC(C)C)C(=O)N[C@H](C=O)CC(C)C | 15
CC(C)C[C@@H](C=O)NC(=O)CNC(=O)[C@H](CC(C)C)NC(=O)OCc1ccccc1 (Cbz-Leu-Gly-Leu-aldehyde) | ~10000

SMILES | IC50 [nM]
CC(C)C[C@H](NC(=O)OCc1ccccc1)C(=O)NCCC=O | > 10000
CC(C)C[C@@H](C=O)NC(=O)[C@H](Cc1ccc(O)cc1)NC(=O)OCc1ccccc1 (Cbz-Tyr-Leu-aldehyde) | > 1000
CC(C)C[C@H](NC(=O)OCc1ccccc1)C(=O)N[C@H](C=O)Cc1ccc(OCc2ccccc2)cc1 (Cbz-Leu-Tyr(Bn)-aldehyde) | 7
CC(C)C[C@@H](C=O)NC(=O)[C@H](CC(C)C)NC(=O)[C@H](C)NC(=O)OCc1ccccc1 (Cbz-Ala-Leu-Leu-aldehyde) | 5
CC(C)C[C@H](NC(=O)OCc1ccccc1)C(=O)N[C@H](C=O)C(C)C (Cbz-Leu-Val-aldehyde) | 4
CC(C)C[C@H](NC(=O)OCc1ccccc1)C(=O)N(C)[C@H](C=O)CC(C)C | > 1000
CC(=O)N[C@@H](COC(C)(C)C)C(=O)N[C@@H](CC(C)C)C(=O)N[C@H](C=O)CC(C)C (Ac-Ser(tBu)-Leu-Leu-aldehyde) | 37
CC(C)C[C@@H](C=O)NC(=O)[C@H](CCC(=O)O)NC(=O)[C@H](CC(C)C)NC(=O)OCc1ccccc1 (Cbz-Leu-Glu-Leu-aldehyde) | 1200
CC(C)C[C@@H](C=O)NC(=O)[C@H](CC(C)C)NC(=O)[C@H](CCC(=O)OC(C)(C)C)NC(=O)OCc1ccccc1 (Cbz-Glu(OtBu)-Leu-Leu-aldehyde) | 25
CC(=O)N[C@@H](CC(C)C)C(=O)N[C@H](C=O)CC(C)C | 130
CC(=O)N[C@@H](CC(C)C)C(=O)N[C@@H](CC(C)C)C(=O)NCC=O (Ac-Leu-Leu-Gly-aldehyde) | ~1000
CC(C)C[C@@H](C=O)NC(=O)[C@H](Cc1ccccc1)NC(=O)OCc1ccccc1 (Cbz-Phe-Leu-aldehyde) | 230
CC(C)C[C@@H](C=O)NC(=O)[C@H](C)NC(=O)[C@H](CC(C)C)NC(=O)OCc1ccccc1 (Cbz-Leu-Ala-Leu-aldehyde) | 90
CC(C)C[C@@H](C=O)NC(=O)[C@H](CC(C)C)NC(=O)OCC1c2ccccc2-c2ccccc21 | 11
CC(C)C[C@@H](C=O)NC(=O)[C@H](CC(C)C)NC(=O)OCc1ccccc1 | 8
CC(C)C[C@@H](C=O)NC(=O)[C@H](Cc1ccccc1)NC(=O)[C@H](CC(C)C)NC(=O)OCc1ccccc1 (Cbz-Leu-Phe-Leu-aldehyde) | 68
CSCC[C@@H](C=O)NC(=O)[C@H](CC(C)C)NC(=O)OCc1ccccc1 (Cbz-Leu-Met-aldehyde) | 33
CC[C@@H](C=O)NC(=O)[C@H](CC(C)C)NC(=O)OCc1ccccc1 (Cbz-Leu-[Abu]-aldehyde) | 10
CC(C)C[C@@H](C=O)NC(=O)[C@H](CO)NC(=O)OCc1ccccc1 (Cbz-Ser-Leu-aldehyde) | 530
CCCC[C@@H](C=O)NC(=O)[C@H](CC(C)C)NC(=O)OCc1ccccc1 [CALPEPTIN] | 5
CC(C)C[C@H](NC(=O)OCc1ccccc1)C(=O)N[C@H](C=O)C(C)(C)C (Cbz-Leu-[Tle]-aldehyde) | 35
